In assay [1] the test system is RAW264.7. The assay is described as follows: Activation of RXR/LXR heterodimer in mouse RAW264.7 cells assessed as induction of ABCA1 mRNA expression by RT-PCR. In kind it is cell-based.
The target of assay [2] is T1, Oxysterols receptor LXR-alpha (Homo sapiens) (UniProt Q13133).
T1 sequence (whole entry): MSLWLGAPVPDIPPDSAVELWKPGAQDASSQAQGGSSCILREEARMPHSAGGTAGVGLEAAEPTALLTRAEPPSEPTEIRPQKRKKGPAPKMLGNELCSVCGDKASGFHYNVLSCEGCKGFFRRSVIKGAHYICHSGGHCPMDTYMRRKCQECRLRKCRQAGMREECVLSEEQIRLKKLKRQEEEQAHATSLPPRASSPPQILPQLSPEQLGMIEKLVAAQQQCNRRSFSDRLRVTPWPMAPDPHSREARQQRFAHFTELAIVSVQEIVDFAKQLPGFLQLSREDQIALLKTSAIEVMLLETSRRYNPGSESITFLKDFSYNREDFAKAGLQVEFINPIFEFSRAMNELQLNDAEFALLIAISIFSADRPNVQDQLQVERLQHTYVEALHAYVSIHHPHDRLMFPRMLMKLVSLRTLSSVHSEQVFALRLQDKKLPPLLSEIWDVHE
The experiment in a line: Agonist activity at LXRalpha in HEK293 cells assessed as transcriptional activation after 48 hrs by luciferase reporter gene assay. In kind it is functional, cell-based. On the technique in general: In a reporter assay the amount or activity of a reporter protein is the signal.

Assay [3] relates to RAW264.7. The experiment in a line: Activation of RXR/LXR heterodimer in mouse RAW264.7 cells assessed as induction of ABCG1 mRNA expression by RT-PCR. In kind it is cell-based.
Assay [4] concerns RAW264.7. The experiment in a line: Activation of RXR/LXR heterodimer in mouse RAW264.7 cells assessed as induction of ABCG1 mRNA expression by RT-PCR in presence of 22(R)-hydroxycholesterol. In kind it is cell-based.
The target of assay [5] is T2, Peroxisome proliferator-activated receptor gamma (Homo sapiens) (UniProt P37231).
T2 sequence (whole entry): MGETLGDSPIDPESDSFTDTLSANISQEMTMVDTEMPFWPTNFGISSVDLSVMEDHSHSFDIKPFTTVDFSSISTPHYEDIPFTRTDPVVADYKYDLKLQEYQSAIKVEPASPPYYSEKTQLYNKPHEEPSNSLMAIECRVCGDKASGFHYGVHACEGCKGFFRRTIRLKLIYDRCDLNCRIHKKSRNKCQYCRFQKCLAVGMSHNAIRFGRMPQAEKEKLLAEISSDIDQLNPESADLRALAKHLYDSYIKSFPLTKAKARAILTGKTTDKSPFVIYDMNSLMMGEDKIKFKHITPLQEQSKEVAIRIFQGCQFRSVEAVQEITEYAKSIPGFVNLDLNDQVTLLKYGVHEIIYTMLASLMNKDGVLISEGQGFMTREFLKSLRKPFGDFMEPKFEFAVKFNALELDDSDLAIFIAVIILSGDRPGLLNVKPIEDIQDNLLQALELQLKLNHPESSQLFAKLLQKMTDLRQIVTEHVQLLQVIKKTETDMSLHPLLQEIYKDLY
The assay is described as follows: Agonist activity at PPARgamma in HEK293 cells assessed as transcriptional activation after 48 hrs by luciferase reporter gene assay. In kind it is functional, cell-based.

Assay [6] addresses T3, Retinoic acid receptor RXR-alpha (Homo sapiens) (UniProt P19793).
T3 sequence (whole entry): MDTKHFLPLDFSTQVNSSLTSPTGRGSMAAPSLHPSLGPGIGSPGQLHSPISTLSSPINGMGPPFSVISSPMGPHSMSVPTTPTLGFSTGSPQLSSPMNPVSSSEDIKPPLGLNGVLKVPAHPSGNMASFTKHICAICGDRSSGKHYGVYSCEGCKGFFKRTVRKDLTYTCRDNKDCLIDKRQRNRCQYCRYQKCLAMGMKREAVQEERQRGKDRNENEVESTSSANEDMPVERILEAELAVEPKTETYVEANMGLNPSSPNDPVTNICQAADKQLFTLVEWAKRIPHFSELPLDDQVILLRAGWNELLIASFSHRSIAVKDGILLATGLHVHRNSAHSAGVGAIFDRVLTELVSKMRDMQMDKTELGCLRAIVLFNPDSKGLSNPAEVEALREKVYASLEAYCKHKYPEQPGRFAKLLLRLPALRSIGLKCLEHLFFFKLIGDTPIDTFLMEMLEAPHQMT
The experiment in a line: Binding affinity to RXRalpha.

Assay [7] has as its target T4, Retinoic acid receptor RXR-alpha (Mus musculus) (UniProt P28700).
T4 sequence (whole entry): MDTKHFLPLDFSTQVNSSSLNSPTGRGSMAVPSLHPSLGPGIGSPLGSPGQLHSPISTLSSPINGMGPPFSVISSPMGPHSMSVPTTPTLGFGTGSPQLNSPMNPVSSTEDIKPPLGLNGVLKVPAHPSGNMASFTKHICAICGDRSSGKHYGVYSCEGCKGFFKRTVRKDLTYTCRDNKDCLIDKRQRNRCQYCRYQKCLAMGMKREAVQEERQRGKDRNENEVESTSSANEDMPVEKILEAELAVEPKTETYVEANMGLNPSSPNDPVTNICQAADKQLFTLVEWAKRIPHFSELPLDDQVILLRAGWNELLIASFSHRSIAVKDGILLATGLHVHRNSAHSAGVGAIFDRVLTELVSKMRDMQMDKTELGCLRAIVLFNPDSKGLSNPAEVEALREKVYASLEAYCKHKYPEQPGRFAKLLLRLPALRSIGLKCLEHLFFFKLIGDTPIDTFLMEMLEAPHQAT
The assay is described as follows: Agonist activity at RXRalpha in mouse peritoneal macrophages assessed as ApoAI-mediated cholesterol efflux in presence of 22(R)-hydroxycholesterol after 24 hrs […]. In kind it is functional.

Assay [8] concerns the target T5, Retinoic acid receptor RXR-alpha (Homo sapiens, UniProt P19793).
T5 sequence (P19793 whole entry): T3 sequence (whole entry)
The experiment in a line: Agonist activity at RXRalpha in HEK293 cells assessed as transcriptional activation after 48 hrs by luciferase reporter gene assay. In kind it is functional, cell-based.

The target in assay [9] is T6, Peroxisome proliferator-activated receptor delta (Homo sapiens) (UniProt Q03181).
T6 sequence (whole entry): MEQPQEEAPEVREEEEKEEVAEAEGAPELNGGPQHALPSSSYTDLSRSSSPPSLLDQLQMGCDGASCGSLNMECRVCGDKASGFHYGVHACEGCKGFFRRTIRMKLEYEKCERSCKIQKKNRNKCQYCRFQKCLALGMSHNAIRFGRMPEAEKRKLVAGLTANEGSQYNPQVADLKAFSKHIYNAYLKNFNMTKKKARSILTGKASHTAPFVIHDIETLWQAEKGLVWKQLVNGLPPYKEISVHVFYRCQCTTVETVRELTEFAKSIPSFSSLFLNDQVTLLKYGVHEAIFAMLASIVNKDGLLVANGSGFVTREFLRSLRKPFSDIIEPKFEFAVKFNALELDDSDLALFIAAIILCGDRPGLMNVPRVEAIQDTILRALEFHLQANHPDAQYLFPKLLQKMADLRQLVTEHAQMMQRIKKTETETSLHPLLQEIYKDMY
The experiment in a line: Agonist activity at PPARdelta in HEK293 cells assessed as transcriptional activation after 48 hrs by luciferase reporter gene assay. In kind it is functional, cell-based.

Assay [10] concerns RAW264.7. The experiment in a line: Activation of RXR/LXR heterodimer in mouse RAW264.7 cells assessed as induction of ABCG1 mRNA expression by RT-PCR in presence of RXR antagonist HX531. In kind it is functional, cell-based.
In assay [11] the target is T4, Retinoic acid receptor RXR-alpha (Mus musculus). The experiment in a line: Agonist activity at RXRalpha in mouse peritoneal macrophages assessed as ApoAI-mediated cholesterol efflux after 24 hrs […]. In kind it is functional. In general terms: Immunoblotting shows a protein as a band on a membrane.
The test system of assay [12] is RAW264.7. The experiment in a line: Activation of RXR/LXR heterodimer in mouse RAW264.7 cells assessed as induction of ABCG1 mRNA expression by RT-PCR RXR antagonist HX531. In kind it is functional, cell-based.

The values below come from ChEMBL document CHEMBL1212931, “Identification of a naturally occurring rexinoid, honokiol, that activates the retinoid X receptor” (J Nat Prod, 2010).

Calls of active or inactive are those of the source. The rule behind the calls is not given here.

Usually EC50 stands for the concentration giving half of the maximal effect.

In the case of `C=CCc1ccc(O)c(-c2ccc(O)c(CC=C)c2)c1` [HONOKIOL], the Activity result in the assay with RAW264.7 [1] is “Dose-dependent effect”. The result (in assay [2]; in [5]; in assay [7]; in assay [9]; in the assay on RAW264.7 [10]; with RAW264.7 [12]) was inactive. For the same molecule, the outcome (in the assay on RAW264.7 [3]; in the assay on RAW264.7 [4]; in assay [6]; in [11]) was Active. For the same molecule, the EC50 in [8] came to 11.8 µM.

Take `CC/C=C\C/C=C\C/C=C\C/C=C\C/C=C\C/C=C\CCC(=O)O`: the outcome in assay [6] was Active.

Take `CC(C)CC[C@@H](O)[C@@H](C)[C@H]1CC[C@H]2[C@@H]3CC=C4C[C@@H](O)CC[C@]4(C)[C@H]3CC[C@]12C`: in the assay on RAW264.7 [1], the Activity result is “Dose-dependent effect”. Besides, the result in assay [11] was Active.

`C=C(c1ccc(C(=O)O)cc1)c1cc2c(cc1C)C(C)(C)CCC2(C)C`: in the assay on RAW264.7 [1], the Activity entry was “Dose-dependent effect”. The result in [11] was Active.

`CC(C)CCC[C@@H](C)CCC[C@@H](C)CCCC(C)CC(=O)O` (stereo partly drawn): the result in [6] was Active.
